The target of data set [1] is cGAS (Mus musculus, UniProt Q8C6L5). Put plainly: IFN-driven gene expression in Trex1-mutant primary BMDMs, RT-qPCR. The following applies: 50 nM ASO transfected 20 h. In general terms: Quantitative PCR measures a nucleic acid by following its amplification.
The target of data set [2] is T1, mouse cGAS (Mus musculus, UniProt Q8C6L5).
T1 construct: endogenous in cells; host or cells: LL171 (mouse L929 cells with ISRE-Luciferase)
Put plainly: ISD45-driven ISRE-luciferase in mouse LL171 cells. The class given is cell-based. The following applies: for effect on ISD-driven ISRE-luciferase, LNA and MOE ASOs (in words): 200 nM or indicated concentrations, ~30 min, ISD overnight (FIG. 22-24); for inhibition of ISD45-driven ISRE-luciferase (in words): 2′OMe or PS oligos 50-600 nM, ISD45 2.5 μg/ml overnight. How it is done: In such examples, inhibition of cGAS activity can be identified by observation of an overall decreased cGAS response of the cell population, or a lower proportion of cells having cGAS-positive activity as compared to positive control condition in which cells are treated with cGAS agonist in the absence of the oligonucleotide (or in the presence of an appropriate control inhibitory agent). In one example, THP-1 or HT-29 cells are transfected with ISD70 and incubated with an oligonucleotide. cGAS activity can then be determined by cytokine (e.g., IP-10 and/or IFNβ) expression (e.g., gene and/or protein expression) and/or secretion levels, such as by ELISA. A similar assay can be performed with LL171 cells transfected with ISD45. […] By way of example, cGAS enzymatic activity may be assessed in vitro using recombinant cGAS and then measuring activity thereof by way of a cGAMP ELISA.
For cGAS stimulations, cells were treated for indicated duration with ASOs, prior to transfection with ISD70 (human cells) or ISD45 (mouse cells) (the ASOs were not washed off prior to ISD transfection unless otherwise indicated). The cGAS ligands ISD45 (Stetson and Medzhitov, 2006) and ISD70 (also known as VACV-70 (Unterholzner et al., 2010)) (Table 1) were resuspended as follows: 5 1d of sense and 5 μl of antisense strands at 10 μg/μl were added to 90 μl PBS under sterile conditions, heated at 75° C. for 30 min, prior to letting cool down at room temperature and aliquoting (stock at 1 μg/1 l). The ISDs were transfected at a concentration of […] at a ratio of 1 μg:1 μl with Lipofectamine 2000 in Opti-MEM (Thermo Fisher Scientific). HEK-TLR3, HEK-TLR7 and […] were treated with indicated concentration of ASOs for 20-50 min, prior to stimulation with poly(I:C) (Invivogen), R848 (Invivogen), Motolimod (MedChemExpress) and the Class B CpG oligonucleotides ODN 2006 (synthesised by IDT and resuspended in RNase-free TE buffer [Table 1]), respectively. The TLR2/1 agonist PAM3CSK4 (Invivogen), the TLR4 agonist lipopolysaccharide (Invivogen), the Class B CpG oligonucleotides ODN 1826 (synthesised by IDT and resuspended in RNase-free TE buffer), the mouse Sting agonist DMXAA (Cayman) and the human STING agonist (compound #3 from (Raanjulu et al., 2018), referred to as GSK herein—kind gift from Cancer Therapeutics CRC, Australia) were used at indicated concentrations. Aspirin (Sigma—A2093) was resuspended in pure medium to 10 mM, filter sterilised and added to the cells at 2 mM final. All ASOs were synthesised by Integrated DNA Technologies (IDT), and resuspended in RNase-free TE buffer, pH 8.0 (Thermo Fisher Scientific). Cell viability was assessed by adding 1× fresh resazurin solution to the wells (10λ solution made up with 7 mg resazurin [Sigma—R7017] dissolved in 3.5 ml PBS, sterile filtered at […]) for 4 h, prior to reading at with a Fluostar OPTIMA (BMG LABTECH) plate-reader (fluorescence: Excitation 535 nm, Emission 590); wells with medium only and 1× resazurin were used as blanks.
Following transfection, the cells were collected from the 6-wells and aliquoted into 96-wells, just before ASO and overnight TLR stimulation (as above described).

For data set [3], the target named is T2, TLR7 (Mus musculus, UniProt P58681).
T2 sequence (P58681 27-1050): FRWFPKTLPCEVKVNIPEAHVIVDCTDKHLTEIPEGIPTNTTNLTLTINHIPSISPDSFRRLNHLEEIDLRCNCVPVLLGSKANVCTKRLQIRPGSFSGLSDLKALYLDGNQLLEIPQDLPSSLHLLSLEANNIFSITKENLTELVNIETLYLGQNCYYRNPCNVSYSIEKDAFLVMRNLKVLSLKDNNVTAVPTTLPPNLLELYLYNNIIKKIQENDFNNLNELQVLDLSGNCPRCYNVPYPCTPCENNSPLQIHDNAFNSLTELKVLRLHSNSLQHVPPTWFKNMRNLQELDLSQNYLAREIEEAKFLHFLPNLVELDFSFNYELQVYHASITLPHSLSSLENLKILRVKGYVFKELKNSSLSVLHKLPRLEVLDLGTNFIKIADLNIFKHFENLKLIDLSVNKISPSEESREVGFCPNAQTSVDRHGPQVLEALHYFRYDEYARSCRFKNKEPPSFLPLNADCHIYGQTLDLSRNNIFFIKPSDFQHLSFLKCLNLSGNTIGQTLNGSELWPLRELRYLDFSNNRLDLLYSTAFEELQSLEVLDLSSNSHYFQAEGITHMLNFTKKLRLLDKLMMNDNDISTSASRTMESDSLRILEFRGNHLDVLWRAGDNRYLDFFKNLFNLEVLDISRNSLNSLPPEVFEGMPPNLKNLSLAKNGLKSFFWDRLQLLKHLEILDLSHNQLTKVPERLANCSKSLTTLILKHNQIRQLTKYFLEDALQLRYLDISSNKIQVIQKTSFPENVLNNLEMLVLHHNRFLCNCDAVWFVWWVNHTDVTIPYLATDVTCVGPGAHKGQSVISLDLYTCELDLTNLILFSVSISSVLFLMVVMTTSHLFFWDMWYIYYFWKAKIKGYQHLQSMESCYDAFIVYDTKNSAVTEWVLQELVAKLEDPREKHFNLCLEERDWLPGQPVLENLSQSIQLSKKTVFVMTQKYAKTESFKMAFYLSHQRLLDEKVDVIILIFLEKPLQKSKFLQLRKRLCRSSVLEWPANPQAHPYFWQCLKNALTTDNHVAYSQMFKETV
Put plainly: B-406-AS ssRNA-induced TNFα in primary BMDMs. The following applies: WT primary BMDMs; 100 nM ASO 1 h; 250 nM B-406-AS RNA overnight; vs dC20 co-treatment.

In the oligonucleotide strings, read from the 5' end, every base follows the letter of its sugar. An asterisk marks phosphorothioate; unmarked linkages are phosphodiester. Other units and linkages are bracketed, terminal groups are in braces. A string of capitals states the bases alone. d = 2'-deoxy (DNA); m = 2'-O-methyl

T1 sequence (Q8C6L5 whole entry): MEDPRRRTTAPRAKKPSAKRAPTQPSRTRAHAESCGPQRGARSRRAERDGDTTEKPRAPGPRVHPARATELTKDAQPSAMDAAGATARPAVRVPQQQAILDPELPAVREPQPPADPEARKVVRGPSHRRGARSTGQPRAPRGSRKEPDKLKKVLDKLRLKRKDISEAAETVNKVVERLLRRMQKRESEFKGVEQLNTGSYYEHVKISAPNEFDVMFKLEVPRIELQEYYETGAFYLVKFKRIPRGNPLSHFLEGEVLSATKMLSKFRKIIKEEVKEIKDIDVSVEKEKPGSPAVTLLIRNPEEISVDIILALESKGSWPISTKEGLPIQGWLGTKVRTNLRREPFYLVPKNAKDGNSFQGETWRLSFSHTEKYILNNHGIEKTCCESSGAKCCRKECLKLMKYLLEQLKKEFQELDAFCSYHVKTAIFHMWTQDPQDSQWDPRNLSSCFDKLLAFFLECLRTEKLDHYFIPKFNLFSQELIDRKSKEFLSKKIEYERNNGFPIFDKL
Sequence of cGAS (Q8C6L5 whole entry): as above

For the substance “T*T*A* G*G*G* T*T*A* G*G*G* T*T*A* G*G*G* T*T*A* G*G*G [A151, reference compound]”, in data set [1], the “basal expression of ISGs (Rsad2, Ifit1) in Trex1-mutant BMDMs (in words)” value is recorded as “failed to inhibit these ISGs”. For the substance “GTGTCTGGAAGCTTCC (antisense; LNA-modified, pattern not given here) [CTNN2B-809 LNA V1]”, the “effect on ISD-driven ISRE-luciferase, LNA and MOE ASOs (in words)” value in data set [2] is “strongly potentiating the ISRE-Luciferase signal”. On the same count and under the same terms, then “GCAGGCTCAGTGATGT (antisense; LNA-modified, pattern not given here) [CTNN2B-1642 LNA V1]”, with “increased potentiation of ISD sensing”. With “mG*mG*mU*A*T*C*C*C*C*C*C*C*C*C*C*C*C*C*C*C (GGUATCCCCCCCCCCCCCCC; antisense; sugars from the 5' end m3 d17, all phosphorothioate, methylation of C not given here) [[C2]Mut1-dC]”, in data set [3], the “TNFα production induced by ssRNA sensing (in words)” value is “significantly reduced TNFα production”. In addition, in data set [2], the “inhibition of ISD45-driven ISRE-luciferase (in words)” value (shortened to “inhibition”) is “significantly more inhibitory than its precursor dC20”. On to “mC*mG*mU*T*T*C*C*C*C*C*C*C*C*C*C*C*C*C*C*C (CGUTTCCCCCCCCCCCCCCC; antisense; sugars from the 5' end m3 d17, all phosphorothioate, methylation of C not given here) [[C2]Mut1-v3-dC]”, for which the “inhibition” value in data set [2] is “lacked significant inhibitory activity”. For the substance “mG*mC*mG*mG*mU*A*T*C*C*A*T*G*T*C*C*mC*mA*mG*mG*mC (mG*mC*mG*mG*mU*dA*dT*dC*dC*dA*dT*dG*dT*dC*dC*mC*mA*mG*mG*mC; antisense) [C2-Mut1]”, in data set [3], the “TNFα production induced by ssRNA sensing (in words)” value is on record as “significantly reduced TNFα production”. Besides, in data set [1], the “basal expression of ISGs (Rsad2, Ifit1) in Trex1-mutant BMDMs (in words)” value was “significantly decreased the basal expression of two ISGs”. Further, in data set [2], the “inhibition” value is recorded as “significantly more inhibitory”.
